For 16 compounds, ED50 and MIC results are on record in ChEMBL document CHEMBL1146778, “The synthesis and antimicrobial evaluation of a new series of isoxazolinyl oxazolidinones” (2004).

Usually ED50 stands for the dose at which the effect has come halfway, by size or by number of responders. High values mean a need for a large dose, low ones an effect at a small dose. One may read the MIC as the lowest concentration found to suppress growth.

Holding throughout (format): functional
One assay has as its system Mus musculus. The experiment in a line: Tested for the dose to protect the mice from infection with Staphylococcus aureus OC 4172, by oral administration.
The next assay deals with Enterococcus faecalis. The experiment in a line: Minimum inhibitory concentration (MIC) against Enterococcus faecalis ATCC 29212.
In assay [1] the test system is Staphylococcus aureus. The experiment in a line: Minimum inhibitory concentration (MIC) against Staphylococcus aureus OC 4172 in the absence of mouse serum.
Assay [2] relates to Staphylococcus aureus. Put plainly: Minimum inhibitory concentration (MIC) against methicillin-resistant Staphylococcus aureus (MRSA) OC2878.
The next assay concerns Enterococcus faecium. Put plainly: Minimum inhibitory concentration (MIC) against Enterococcus faecium OC 3312 (VRE).
Assay [3] has as its system Escherichia coli. The experiment in a line: Minimum inhibitory concentration (MIC) against Escherichia coli OC 2530 (HS).
The test system of assay [4] is Staphylococcus aureus. The experiment in a line: Minimum inhibitory concentration (MIC) against Staphylococcus aureus OC 4172 in the presence of 50% mouse serum.
For assay [5], the system named is Escherichia coli. The experiment in a line: Minimum inhibitory concentration (MIC) against Escherichia coli OC 2605.
The test system of assay [6] is Staphylococcus aureus. The experiment in a line: Tested for the dose to protect the mice from infection with Staphylococcus aureus OC 4172, by subcutaneous administration. The following applies: sc.

Values after ≈ are worked out from the molar mass of the structure shown.

For `CC(=O)NC[C@H]1CN(c2ccc(C3=NOC(C(N)=O)C3)c(F)c2)C(=O)O1` (stereo partly specified), the values for the ED50 in the assay with Mus musculus and in the assay on Staphylococcus aureus [6] were 40 mg/kg/day and 11.8 mg/kg/day, respectively. Also, the MIC worked out at 4 µg/mL (≈ 11 µM) against Enterococcus faecalis; 2 µg/mL (≈ 5.49 µM) against Staphylococcus aureus [1]; 2 µg/mL (≈ 5.49 µM) against Staphylococcus aureus [2]; 4 µg/mL (≈ 11 µM) in the assay on Enterococcus faecium; 32 µg/mL (≈ 87.8 µM) against Escherichia coli [3]; 1 µg/mL with Staphylococcus aureus [4]. Moreover, the MIC against Escherichia coli [5] is more than 64 µg/mL.

For `COC(=O)c1cc(-c2ccc(N3C[C@H](CNC(C)=O)OC3=O)cc2F)no1`, the minimum inhibitory concentration (MIC) was 16 µg/mL (≈ 42.4 µM) in the assay on Enterococcus faecalis; 8 µg/mL (≈ 21.2 µM) in the assay on Staphylococcus aureus [1]; 4 µg/mL (≈ 10.6 µM) in the assay on Staphylococcus aureus [2]; 8 µg/mL (≈ 21.2 µM) with Enterococcus faecium; 64 µg/mL (≈ 170 µM) against Escherichia coli [3]; more than 128 µg/mL in the assay on Staphylococcus aureus [4]. This compound also displayed an MIC in the assay with Escherichia coli [5] of more than 128 µg/mL.

On to `CC(=O)NC[C@H]1CN(c2ccc(C3=NOC(CN(C)C)C3)c(F)c2)C(=O)O1` (stereo partly specified), for which the MIC in the assay with Enterococcus faecalis amounted to 8 µg/mL (≈ 21.1 µM); against Staphylococcus aureus [1], 8 µg/mL (≈ 21.1 µM); against Staphylococcus aureus [2], 8 µg/mL (≈ 21.1 µM); in the assay on Enterococcus faecium it was 8 µg/mL (≈ 21.1 µM); in the assay on Escherichia coli [3], 64 µg/mL (≈ 169 µM); in the assay on Staphylococcus aureus [4] it was 2 µg/mL. In the assay with Escherichia coli [5], the MIC stood at 128 µg/mL (≈ 338 µM).

As for `COCCNC(=O)C1CC(c2ccc(N3C[C@H](CNC(C)=O)OC3=O)cc2F)=NO1` (stereo partly specified), the MIC came to 16 µg/mL (≈ 37.9 µM) in the assay with Enterococcus faecalis; 8 µg/mL (≈ 18.9 µM) against Staphylococcus aureus [1]; 16 µg/mL (≈ 37.9 µM) in the assay with Staphylococcus aureus [2]; 16 µg/mL (≈ 37.9 µM) with Enterococcus faecium; 64 µg/mL (≈ 152 µM) with Escherichia coli [3]; 8 µg/mL in the assay on Staphylococcus aureus [4]. The minimum inhibitory concentration (MIC) against Escherichia coli [5] was more than 64 µg/mL.

With `CC(=O)NC[C@H]1CN(c2ccc(C3=NOC(c4ccncc4)C3)c(F)c2)C(=O)O1` (stereo partly specified), the MIC was determined as 4 µg/mL (≈ 10 µM) in the assay on Enterococcus faecalis; 4 µg/mL (≈ 10 µM) against Staphylococcus aureus [1]; 1 µg/mL (≈ 2.51 µM) in the assay with Staphylococcus aureus [2]; 4 µg/mL (≈ 10 µM) against Enterococcus faecium; 32 µg/mL (≈ 80.3 µM) against Escherichia coli [3]; 4 µg/mL in the assay with Staphylococcus aureus [4]. Further, in the assay on Escherichia coli [5], the MIC is more than 64 µg/mL.

`CC(=O)NC[C@H]1CN(c2ccc(C3=NOC(C(=O)N4CCOCC4)C3)c(F)c2)C(=O)O1` (stereo partly specified): the minimum inhibitory concentration (MIC) against Enterococcus faecalis was determined as 8 µg/mL (≈ 18.4 µM); against Staphylococcus aureus [1], 8 µg/mL (≈ 18.4 µM); in the assay with Staphylococcus aureus [2], 8 µg/mL (≈ 18.4 µM); in the assay with Enterococcus faecium it was 8 µg/mL (≈ 18.4 µM); against Escherichia coli [3], 32 µg/mL (≈ 73.7 µM); with Staphylococcus aureus [4], 8 µg/mL. The MIC with Escherichia coli [5] was more than 128 µg/mL.

With `CC(=O)NC[C@H]1CN(c2ccc(C3=NOC(C#N)C3)c(F)c2)C(=O)O1` (stereo partly specified), the 50% effective dose (ED50) in the assay on Mus musculus was 22.1 mg/kg/day; in the assay on Staphylococcus aureus [6], 22.4 mg/kg/day. Also, the MIC with Enterococcus faecalis was found to be 2 µg/mL (≈ 5.78 µM); against Staphylococcus aureus [1] it was 2 µg/mL (≈ 5.78 µM); against Staphylococcus aureus [2] it was 1 µg/mL (≈ 2.89 µM); in the assay with Enterococcus faecium it was 2 µg/mL (≈ 5.78 µM); in the assay with Escherichia coli [3], 16 µg/mL (≈ 46.2 µM); in the assay on Staphylococcus aureus [4] it was 1 µg/mL. In the assay on Escherichia coli [5], this compound registered an MIC of 128 µg/mL (≈ 370 µM).

As for `CC(=O)NC[C@H]1CN(c2ccc(C3=NOC(c4ccccn4)C3)c(F)c2)C(=O)O1` (stereo partly specified), the ED50 in the assay with Mus musculus turned out to be 31.6 mg/kg/day; in the assay with Staphylococcus aureus [6], 22.8 mg/kg/day. Besides, the MIC against Enterococcus faecalis is 2 µg/mL (≈ 5.02 µM); with Staphylococcus aureus [1], 2 µg/mL (≈ 5.02 µM); against Staphylococcus aureus [2] it was 2 µg/mL (≈ 5.02 µM); in the assay on Enterococcus faecium, 2 µg/mL (≈ 5.02 µM); with Escherichia coli [3], 8 µg/mL (≈ 20.1 µM); with Staphylococcus aureus [4], 4 µg/mL. In addition, the MIC in the assay with Escherichia coli [5] was more than 64 µg/mL.

For `CC(=O)NC[C@H]1CN(c2ccc(C3=NOC(CN4CCN(C(C)=O)CC4)C3)c(F)c2)C(=O)O1` (stereo partly specified), the MIC with Enterococcus faecalis is 8 µg/mL (≈ 17.3 µM); against Staphylococcus aureus [1], 8 µg/mL (≈ 17.3 µM); against Staphylococcus aureus [2], 8 µg/mL (≈ 17.3 µM); against Enterococcus faecium, 16 µg/mL (≈ 34.7 µM); against Escherichia coli [3], 16 µg/mL (≈ 34.7 µM); with Staphylococcus aureus [4], 8 µg/mL. In the assay on Escherichia coli [5], the MIC was more than 32 µg/mL.

Regarding `CNC(=O)C1CC(c2ccc(N3C[C@H](CNC(C)=O)OC3=O)cc2F)=NO1` (stereo partly specified), the minimum inhibitory concentration (MIC) in the assay with Enterococcus faecalis was 4 µg/mL (≈ 10.6 µM); with Staphylococcus aureus [1] it was 4 µg/mL (≈ 10.6 µM); against Staphylococcus aureus [2] it was 4 µg/mL (≈ 10.6 µM); with Enterococcus faecium it was 4 µg/mL (≈ 10.6 µM); against Escherichia coli [3], 32 µg/mL (≈ 84.6 µM); with Staphylococcus aureus [4] it was 4 µg/mL. This compound also showed an MIC in the assay on Escherichia coli [5] of more than 128 µg/mL.

Regarding `CC(=O)NC[C@H]1CN(c2ccc(-c3cc(-c4ccccn4)on3)c(F)c2)C(=O)O1`, the MIC is 4 µg/mL (≈ 10.1 µM) in the assay with Enterococcus faecalis; 4 µg/mL (≈ 10.1 µM) with Staphylococcus aureus [1]; 2 µg/mL (≈ 5.05 µM) with Staphylococcus aureus [2]; 4 µg/mL (≈ 10.1 µM) in the assay with Enterococcus faecium; 64 µg/mL (≈ 161 µM) against Escherichia coli [3]; 8 µg/mL in the assay with Staphylococcus aureus [4]. This compound also yielded a minimum inhibitory concentration (MIC) in the assay on Escherichia coli [5] of more than 128 µg/mL. For the same compound, the ED50 in the assay with Staphylococcus aureus [6] was more than 40 mg/kg/day.

For `CC(=O)NCC1CC(c2ccc(N3C[C@H](CNC(C)=O)OC3=O)cc2F)=NO1` (stereo partly specified), the minimal inhibitory concentration (MIC) against Enterococcus faecalis came out at 16 µg/mL (≈ 40.8 µM); against Staphylococcus aureus [1], 8 µg/mL (≈ 20.4 µM); in the assay with Staphylococcus aureus [2], 16 µg/mL (≈ 40.8 µM); in the assay with Enterococcus faecium, 16 µg/mL (≈ 40.8 µM); with Escherichia coli [3], 64 µg/mL (≈ 163 µM); in the assay with Staphylococcus aureus [4], 8 µg/mL. Moreover, the MIC against Escherichia coli [5] is more than 64 µg/mL.

On to `CCOC(=O)C1CC(c2ccc(N3C[C@H](CNC(C)=O)OC3=O)cc2F)=NO1` (stereo partly specified), for which the MIC is 16 µg/mL (≈ 40.7 µM) against Enterococcus faecalis; 8 µg/mL (≈ 20.3 µM) with Staphylococcus aureus [1]; 4 µg/mL (≈ 10.2 µM) in the assay on Staphylococcus aureus [2]; 8 µg/mL (≈ 20.3 µM) against Enterococcus faecium; 128 µg/mL (≈ 325 µM) against Escherichia coli [3]; more than 128 µg/mL with Staphylococcus aureus [4]. Further, in the assay on Escherichia coli [5], the MIC was more than 128 µg/mL.

For `CC(=O)NC[C@H]1CN(c2ccc(C3=NOC(Cn4ccnc4)C3)c(F)c2)C(=O)O1` (stereo partly specified), the minimal inhibitory concentration (MIC) in the assay on Enterococcus faecalis, against Staphylococcus aureus [1], against Enterococcus faecium, in the assay on Escherichia coli [3], with Staphylococcus aureus [4] and with Escherichia coli [5] was more than 32 µg/mL in each case.

Consider `CC(=O)NC[C@H]1CN(c2ccc(C3=NOC(CN4CCOCC4)C3)c(F)c2)C(=O)O1` (stereo partly specified), for which the MIC in the assay on Enterococcus faecalis is 16 µg/mL (≈ 38.1 µM); against Staphylococcus aureus [1] it was 16 µg/mL (≈ 38.1 µM); against Staphylococcus aureus [2] it was 8 µg/mL (≈ 19 µM); in the assay with Enterococcus faecium, 32 µg/mL (≈ 76.1 µM); against Escherichia coli [3], 32 µg/mL (≈ 76.1 µM); in the assay on Staphylococcus aureus [4], 16 µg/mL. Further, in the assay on Escherichia coli [5], the MIC was determined as 64 µg/mL (≈ 152 µM).

In the case of `CC(=O)NC[C@H]1CN(c2ccc(N3CCOCC3)c(F)c2)C(=O)O1` [LINEZOLID], the ED50 with Mus musculus was 6.8 mg/kg/day; in the assay with Staphylococcus aureus [6], 5.4 mg/kg/day. Also, the MIC against Enterococcus faecium is 4 µg/mL (≈ 11.9 µM); in the assay with Escherichia coli [3], 16 µg/mL (≈ 47.4 µM); in the assay on Escherichia coli [5], more than 32 µg/mL.
